Results published in the NIST ThermoML archive (doi:10.1016/j.jct.2012.09.023).
± gives the expanded uncertainty stated by the source.

Settings: 101.33 kPa, Liquid, Pycnometric method

Row | mass density (303.15 K) | mass density (313.15 K) | mass density (323.15 K) | Structure (SMILES)
1 | 1227.9 ± 2.1 kg/m3 | 1218 ± 2.1 kg/m3 | 1208.2 ± 2.1 kg/m3 | CC(=O)N(C)C.O=C(O)C(F)(F)F [N,N-dimethylacetamide trifluoroacetate]
2 | 1232.3 ± 2.1 kg/m3 | 1226.1 ± 2.1 kg/m3 | 1219.9 ± 2.1 kg/m3 | CN1CCCC1=O.O=C(O)C(F)(F)F [N-methylpyrrolidone trifluoroacetate]
3 | 1246 ± 2.2 kg/m3 | 1232.9 ± 2.2 kg/m3 | 1219.9 ± 2.2 kg/m3 | CN(C)C=O.O=C(O)C(F)(F)F [N,N-dimethylformamide trifluoroacetate]
